Measured values from patent publication EP0004335A2, “Prostacyclin analogs, process and intermediates for their preparation and their use as medicines” (HOECHST AKTIENGESELLSCHAFT, priority 1978, dated 1979).
pIC50: −log10 of the molar value.

system: durch Arachidonsäure in Humanblut (in vitro) induzierten Thrombocytenaggregation; test: Inhibition of arachidonic acid-induced platelet aggregation in human blood (in vitro); type: cell-based; conditions: Konzentration, die eine Aggregation von 50% der vorhandenen Thrombocyten verhindert
From the text: Die Thrombocyten aggregationshemmende Wirkung der erfindungsgemäßen Verbindungen wurde an der durch Arachidonsäure in Humanblut (in vitro) induzierten Thrombocytenaggregation ermittelt. In der folgenden Tabelle ist die Konzentration an dem jeweiligen Prostacyclin-Derivat angegeben, die eine Aggregation von 50% der vorhandenen Thrombocyten verhindert (IC50).

Row | pIC50 | SMILES
1 | 5.92 | COCCC(C)(C)C(O)C=CC1C(O)CC2OC(=CCCCC(=O)O)CC21 (stereo not drawn) [Beispiel 3 a), Kaliumsalz des 16,16-Dimethyl-19-oxa-PGI2]
2 | 5.00 | COC(=O)CCCC=C1CC2C(CC(O)C2C=CC(O)C(C)(C)OC2CCCCC2)O1 (stereo not drawn) [Beispiel 2 e), 16-Cyclohexyloxy-16-methyl-18,19-20-trinor-PGI -methylester]
3 | 6.27 | CCOCC(C)(C)C(O)C=CC1C(O)CC2OC(=CCCCC(=O)O)CC21 (stereo not drawn) [Beispiel 3 b), Natriumsalz des 16,16-Dimethyl-18-oxa-PGI2]
